One assay deals with T1, 5-lipoxygenase (Rattus norvegicus, UniProt P12527).
T1 construct: endogenous in cells; host or cells: RBL-1 (rat basophilic leukemia) cells, 10,000 xg supernatant of the homogenate
T1 sequence (P12527 1-673): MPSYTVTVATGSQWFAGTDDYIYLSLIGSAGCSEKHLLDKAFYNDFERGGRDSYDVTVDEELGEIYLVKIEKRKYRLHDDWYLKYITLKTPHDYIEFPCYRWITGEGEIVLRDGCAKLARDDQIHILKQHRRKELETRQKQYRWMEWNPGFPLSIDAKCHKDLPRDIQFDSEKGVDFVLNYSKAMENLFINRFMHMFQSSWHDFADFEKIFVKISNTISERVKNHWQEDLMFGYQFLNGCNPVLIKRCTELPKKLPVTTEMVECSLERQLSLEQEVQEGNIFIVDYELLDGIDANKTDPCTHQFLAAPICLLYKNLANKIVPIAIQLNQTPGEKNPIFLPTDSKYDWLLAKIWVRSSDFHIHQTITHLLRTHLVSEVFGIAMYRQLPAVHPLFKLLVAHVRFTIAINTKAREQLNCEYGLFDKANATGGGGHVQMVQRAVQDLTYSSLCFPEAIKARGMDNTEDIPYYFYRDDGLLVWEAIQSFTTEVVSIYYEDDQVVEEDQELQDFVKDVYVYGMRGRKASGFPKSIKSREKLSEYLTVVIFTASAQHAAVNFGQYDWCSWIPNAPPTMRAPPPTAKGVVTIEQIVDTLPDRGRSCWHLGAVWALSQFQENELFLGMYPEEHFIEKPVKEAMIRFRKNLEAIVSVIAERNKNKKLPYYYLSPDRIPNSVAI
Nature of the assay: 5-lipoxygenase inhibition in vitro, RBL-1 cell supernatant as enzyme source. In kind it is biochemical. Conditions: 10,000 xg supernatant of homogenized rat basophilic leukemia (RBL-1) cells, pH 7.0 phosphate buffer, 14C-arachidonic acid, 37°, two minutes. The method, then: The test method is a modification of the procedure developed by Jakschik et al. (Prostaglandins (1978) 16. 733; Biochem. Biophys. Res. Commun. (1980) 95. 103; Biochem. Biophys, Res. Commun. (1981) 102 624).
The 10,000 xg supernatant from homogenized RBL-1 cells was incubated with test compound in a pH 7.0 phosphate buffer for about five minutes. ^14 C-arachidonic acid was added to initiate the reaction, which was allowed to continue at 37° for two minutes. The reaction was stopped by freezing in a dry ice/ethanol slurry and the 5-lipoxygenase products were separated from the substrate on silica gel columns. The amount of individual lipoxygenase products produced was determined and the percent inhibition calculated.

Assay [1] has as its system arachidonic acid-induced ear edema. Nature of the assay: arachidonic acid-induced ear edema in mice. It counts as in vivo. Conditions: Mus musculus, 1 h; 100 μg/ear topical in acetone, CF1 mice, 1 mg arachidonic acid, one hour after challenge; >30% significant, 50% and above good to excellent. The method, then:
This assay indicates a specific use in the treatment of skin diseases such as psoriasis. This assay also implies a reduction in leukotrienes caused by the compounds of the invention and indicates the use of these compounds in other diseases where the production of leukotrienes is involved in the pathological process. The assay is a modification of the procedure described by Young et al. (J. Invest. Dermatol. (1983) 80. 48).
Arachidonic acid (1 mg) was applied as an acetone solution to the inner surface of the pinna of CF1 mice. Test compound dissolved in acetone was applied to the ear just prior to the arachidonic acid challenge. One hour after challenge, 6 mm disks were removed from the ear with a biopsy punch and the weight determined. The results were determined as a percent inhibition of the swelling which occurred in the absence of the test compound.
Significant inhibitory activity is considered to be greater than 30% inhibition. 50% and above is considered to be good to excellent activity.

Structures are written as SMILES.

For `CC(=O)Oc1c(Cc2ccccc2)ccc2ccccc12` [Example 1, 1-acetoxy-2-phenylmethylnaphthalene], the concentration for half-maximal inhibition (IC50) at 5-lipoxygenase is 140 nM. In assay [1], the inhibition in vivo at 100 µg/ear amounted to 66%.

As for `CCOC(=O)Oc1c(Cc2ccccc2)ccc2ccccc12` [Example 2, 1-ethoxycarbonyloxy-2-phenylmethyl naphthalene], the IC50 against 5-lipoxygenase came out at 1200 nM. This compound yielded an inhibition in vivo at 100 µg/ear in assay [1] of 50%.

Regarding `O=C(O)CCC(=O)Oc1c(Cc2ccccc2)ccc2ccccc12` [Example 3, 1-(3-carboxvpropionvloxv)-2-phenylmethvlnaphthalene], it took 530 nM to reach half-maximal inhibition at 5-lipoxygenase (IC50).

At 5-lipoxygenase, `CN(C)CCCC(=O)Oc1c(Cc2ccccc2)ccc2ccccc12` [Example 4, 1-(4-demethylamine-butyryloxy)-2-phenylmethvlnaohthalene hvdrochloride] displayed an IC50 of 520 nM. In assay [1], this compound came in with an inhibition in vivo at 100 µg/ear of 44%.

`CC(=O)Oc1c(Cc2ccccc2F)ccc2ccccc12` [Example 7]: the inhibition in vivo at 100 µg/ear in assay [1] amounted to 72%.

In turn, `CC(=O)Oc1c(Cc2cccc(F)c2)ccc2ccccc12` [Example 8] had an IC50 on 5-lipoxygenase of 62 nM.

On 5-lipoxygenase, `COc1ccc(Cc2ccc3ccccc3c2OC(C)=O)cc1` [Example 10] yielded an IC50 of 90 nM. This compound also displayed an inhibition in vivo at 100 µg/ear in assay [1] of 53%.

In turn, `COc1ccc(Cc2ccc3ccccc3c2OC(C)=O)cc1OC` [Example 11] showed an IC50 against 5-lipoxygenase of 580 nM.

`CC(=O)Oc1ccc(Cc2ccc3ccccc3c2OC(C)=O)cc1OC(C)=O` [Example 12, 1-acetoxy-2-(3,4-diaacetoxyphenylmethyl)naphthalene] showed a half-maximal inhibitory concentration (IC50) on 5-lipoxygenase of 1600 nM. The compound also registered an inhibition in vivo at 100 µg/ear in assay [1] of 35%.

In the case of `CC(=O)Oc1c(Cc2ccc3c(c2)OCO3)ccc2ccccc12` [Example 14], the half-inhibitory concentration (IC50) on 5-lipoxygenase is 190 nM.

On to `CC(=O)Oc1c(Cc2ccc(N(C)C)cc2)ccc2ccccc12` [Example 15, 1-acetoxy-2-(4-dimethylaminophenylmethyl)naphthalene], for which the midpoint of inhibition on 5-lipoxygenase, the IC50, lay at 810 nM. Further, the inhibition in vivo at 100 µg/ear in assay [1] came out at 49%.

As to `CC(=O)Oc1c(Cc2cccs2)ccc2ccccc12` [Example 17], inhibition against 5-lipoxygenase was half-maximal at 70 nM (IC50). Further, in assay [1], the inhibition in vivo at 100 µg/ear came to 52%.

The values above are taken from patent publication US5006555A, “Esters of 2-arylmethyl-1-naphthol derivatives as 5-lipoxygenase inhibitors” (E. I. Du Pont de Nemours and Company, priority 1990, dated 1991).
